In patent publication US7550456B2, “Substituted aryl cycloalkanoyl derivatives and methods of their use” (Wyeth, priority 2003, dated 2009) one finds inhibition data, which are given here for 25 molecules.

Where a name gives a salt, the structure may show the parent alone.

For one experiment, the target named is T1, human hNET (Homo sapiens, UniProt P23975).
T1 construct: expressed in transfected cells; host or cells: MDCK-Net6 (MDCK cells, stably transfected)
T1 sequence (P23975 whole entry): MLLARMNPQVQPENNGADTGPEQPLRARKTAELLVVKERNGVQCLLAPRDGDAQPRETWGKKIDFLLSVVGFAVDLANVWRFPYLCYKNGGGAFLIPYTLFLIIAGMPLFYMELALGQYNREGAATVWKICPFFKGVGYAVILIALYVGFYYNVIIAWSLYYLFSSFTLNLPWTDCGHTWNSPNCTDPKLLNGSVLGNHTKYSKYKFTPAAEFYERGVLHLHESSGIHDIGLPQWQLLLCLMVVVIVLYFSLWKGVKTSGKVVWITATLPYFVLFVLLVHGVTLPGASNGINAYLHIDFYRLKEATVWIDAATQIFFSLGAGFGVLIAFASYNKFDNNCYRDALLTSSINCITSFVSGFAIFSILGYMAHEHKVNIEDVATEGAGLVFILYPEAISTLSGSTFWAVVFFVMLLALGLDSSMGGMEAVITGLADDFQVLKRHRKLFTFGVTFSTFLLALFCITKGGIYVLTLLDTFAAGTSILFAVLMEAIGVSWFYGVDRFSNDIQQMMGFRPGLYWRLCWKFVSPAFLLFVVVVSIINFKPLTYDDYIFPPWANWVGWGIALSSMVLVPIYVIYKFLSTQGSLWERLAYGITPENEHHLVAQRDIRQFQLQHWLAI
In words: Norepinephrine (NE) uptake assay in MDCK-Net6 cells. Type of experiment: cell-based. As to conditions: 1 μM test compound, [3H]NE uptake, read-out: % Inhibition @ 1 μM (hNET). The essentials:
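Radiolabelled NE uptake was counted by scintillation after NaOH lysis, with 1 µM desipramine defining non-specific uptake. EC50 came from a logistic dose-response fit.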
By inhibition is commonly meant the change of the read-out against control, counted positive when it falls. As to `OC1(C(CN2CCNCC2)c2ccc(-c3cccc(OC(F)(F)F)c3)cc2)CCC1` (stereo not shown) [Example 183, 1-{2-piperazin-1-yl-1-[3′-(trifluoromethoxy)-1,1′-biphenyl-4-yl]ethyl}cyclobutanol dihydrochloride], the inhibition at 1 µM came to 16%.

With `COc1cc(C(CN2CCN(C)CC2)C2(O)CCCCC2)ccc1OCc1ccc(C(F)(F)F)cc1` (stereo not shown) [Example 449, 1-[1-(3-methoxy-4-{[4-(trifluoromethyl)benzyl]oxy}phenyl)-2-(4-methylpiperazin-1-yl)ethyl]cyclohexanol dihydrochloride], the inhibition at 1 µM was 88%.

As to `CN1CCN(CC(c2ccc(OCc3ccc(C(F)(F)F)cc3)c(F)c2)C2(O)CCCCC2)CC1` (stereo not shown) [Example 416, 1-[1-(3-fluoro-4-{[4-(trifluoromethyl)benzyl]oxy}phenyl)-2-(4-methylpiperazin-1-yl)ethyl]cyclohexanol dihydrochloride], the inhibition at 1 µM was determined as 91%.

Regarding `COc1cccc(COc2ccc(C(CN3CCN(C)CC3)C3(O)CCCCC3)cc2Cl)c1` (stereo not shown) [Example 455, 1-[1-{3-chloro-4-[(3-methoxybenzyl)oxy]phenyl}-2-(4-methylpiperazin-1-yl)ethyl]cyclohexanol dihydrochloride], the inhibition at 1 µM amounted to 99%.

In the case of `CCC1CN(C[C@H](c2cccc(OC(F)(F)F)c2)C2(O)CCCCC2)CCN1` (stereo partly drawn) [Example 350, 1-{(1S)-2-(3-ethylpiperazin-1-yl)-1-[3-(trifluoromethoxy)phenyl]ethyl}cyclohexanol dihydrochloride], the inhibition at 1 µM was found to be 79%.

With `OC1(C(CN2CCNCC2)c2ccc(-c3ccc(Cl)c(Cl)c3)cc2)CCCCC1` (stereo not shown) [Example 173, 1-[1-(3′,4′-dichloro-1,1′-biphenyl-4-yl)-2-piperazin-1-ylethyl]cyclohexanol dihydrochloride], the inhibition at 1 µM was 35%.

`OC1(C(CN2CCNCC2)c2ccc(OCc3ccc4ccccc4c3)c(Cl)c2)CCCCC1` (stereo not shown) [Example 427, 1-{1-[3-chloro-4-(2-naphthylmethoxy)phenyl]-2-piperazin-1-ylethyl}cyclohexanol dihydrochloride]: the inhibition at 1 µM was 33%.

Regarding `C#Cc1cccc(C(CN2CCN(C)CC2)C2(O)CCCCC2)c1` (stereo not shown) [Example 299, 1-[1-(3-ethynylphenyl)-2-(4-methylpiperazin-1-yl)ethyl]cyclohexanol dihydrochloride], the inhibition at 1 µM was found to be 95%.

As for `CN1CCN(CC(c2ccc(-c3ccc(Cl)c(Cl)c3)cc2)C2(O)CCC2)CC1` (stereo not shown) [Example 296, 1-[1-(3′,4′-dichloro-1,1′-biphenyl-4-yl)-2-(4-methylpiperazin-1-yl)ethyl]cyclobutanol dihydrochloride], the inhibition at 1 µM amounted to 13%.

With `CC(C)N1CCN(CC(c2cccc(OC(F)(F)F)c2)C2(O)CCCCC2)CC1` (stereo not shown) [Example 362, 1-{2-(4-isopropylpiperazin-1-yl)-1-[3-(trifluoromethoxy)phenyl]ethyl}cyclohexanol dihydrochloride], the inhibition at 1 µM stood at 51%.

On to `C[C@@H]1CN(C[C@H](c2cccc(OC(F)(F)F)c2)C2(O)CCCCC2)C[C@H](C)N1C` [Example 368, 1-{(1S)-1-[3-(trifluoromethoxy)phenyl]-2-[(3R,5S)-3,4,5-trimethylpiperazin-1-yl]ethyl}cyclohexanol dihydrochloride], for which the inhibition at 1 µM was 93%.

Consider `CN1CCN(CC(c2ccc(-c3cccc(C#N)c3)cc2)C2(O)CCCCC2)CC1` (stereo not shown) [Example 177, 1-[1-(3′-cyano-1,1′-biphenyl-4-yl)-2-(4-methylpiperazin-1-yl)ethyl]cyclohexanol dihydrochloride], for which the inhibition at 1 µM came out at 54%.

With `OC1(C(CN2CCNCC2)c2ccc(OC(F)(F)F)cc2)CCC1` (stereo not shown) [Example 304, 1-{2-piperazin-1-yl-1-[4-(trifluoromethoxy)phenyl]ethyl}cyclobutanol dihydrochloride], the inhibition at 1 µM stood at 41%.

As to `OC1(C(CN2CCNCC2)c2ccc(Oc3cccc4ccccc34)cc2)CCCCC1` (stereo not shown) [Example 389, 1-{1-[4-(1-naphthyloxy)phenyl]-2-piperazin-1-ylethyl}cyclohexanol dihydrochloride], the inhibition at 1 µM stood at 16%.

Turning to `CN1CCN(CC(c2ccc(OCc3ccc(Br)cc3F)cc2)C2(O)CCCCC2)CC1` (stereo not shown) [Example 435, 1-[1-{4-[(4-bromo-2-fluorobenzyl)oxy]phenyl}-2-(4-methylpiperazin-1-yl)ethyl]cyclohexanol dihydrochloride], the inhibition at 1 µM stood at 85%.

Regarding `OC1(C(CN2CCNCC2)c2ccc(-c3ccc(Cl)cc3)cc2)CCCCC1` (stereo not shown) [Example 172, 1-[1-(4′-chloro-1,1′-biphenyl-4-yl)-2-piperazin-1-ylethyl]cyclohexanol dihydrochloride], the inhibition at 1 µM is 55%.

As to `COc1cccc(-c2cccc(C(CN3CCNCC3)C3(O)CCCCC3)c2)c1` (stereo not shown) [Example 138, 1-[1-(3′-methoxy-1,1′-biphenyl-3-yl)-2-piperazin-1-ylethyl]cyclohexanol dihydrochloride], the inhibition at 1 µM worked out at 44%.

On to `OC1(C(CN2CCNCC2)c2ccc(-c3ccsc3)cc2)CCCCC1` (stereo not shown) [Example 174, 1-[2-piperazin-1-yl-1-(4-thien-3-ylphenyl)ethyl]cyclohexanol dihydrochloride], for which the inhibition at 1 µM is 2%.

As for `CN1CCN(CC(c2ccc(OCc3cccc(C(F)(F)F)c3)cc2)C2(O)CCCCC2)CC1` (stereo not shown) [Example 439, 1-[2-(4-methylpiperazin-1-yl)-1-(4-{[3-(trifluoromethyl)benzyl]oxy}phenyl)ethyl]cyclohexanol dihydrochloride], the inhibition at 1 µM is 79%.

Regarding `OC1(C(CN2CCNCC2)c2cccc(OCc3ccccc3)c2)CCC1` (stereo not shown) [Example 111, 1-{1-[3-(benzyloxy)phenyl]-2-piperazin-1-ylethyl}cyclobutanol dihydrochloride], the inhibition at 1 µM was -3%.

Regarding `CN1CCN(CC(c2ccc(OCc3ccc(C(F)(F)F)cc3)cc2)C2(O)CCCCC2)CC1` (stereo not shown) [Example 437, 1-[2-(4-methylpiperazin-1-yl)-1-(4-{[4-(trifluoromethyl)benzyl]oxy}phenyl)ethyl]cyclohexanol dihydrochloride], the inhibition at 1 µM turned out to be 38%.

With `OC1(C(CN2CCNCC2)c2ccc(OCc3ccccc3)cc2)CCC1` (stereo not shown) [Example 70, 1-{1-[4-(benzyloxy)phenyl]-2-piperazin-1-ylethyl}cyclobutanol dihydrochloride], the inhibition at 1 µM came out at 8%.

With `C[C@H]1CN(C[C@H](c2cccc(OC(F)(F)F)c2)C2(O)CCCCC2)CCN1` [Example 348, 1-{(1S)-2-[(3S)-3-methylpiperazin-1-yl]-1-[3-(trifluoromethoxy)phenyl]ethyl}cyclohexanol dihydrochloride], the inhibition at 1 µM was 91%.

In the case of `C[C@@H]1CN(C[C@H](c2cccc(OC(F)(F)F)c2)C2(O)CCCCC2)C[C@H](C)N1` [Example 367, 1-{(1S)-2-[(3R,5S)-3,5-dimethylpiperazin-1-yl]-1-[3-(trifluoromethoxy)phenyl]ethyl}cyclohexanol dihydrochloride], the inhibition at 1 µM amounted to 94%.

The same experiment, now with this note: 10 μM test compound (stated in the cell), [3H]NE uptake.
Take `CN1CCN(CC(c2ccc(-c3cccc(OC(F)(F)F)c3)cc2)C2(O)CCC2)CC1` (stereo not shown) [Example 295, 1-{2-(4-methylpiperazin-1-yl)-1-[3′-(trifluoromethoxy)-1,1′-biphenyl-4-yl]ethyl}cyclobutanol dihydrochloride]: the inhibition at 10 µM worked out at 2%.
